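The compound was tested at five concentrations on cells cultured in 96-well plates, with a 48-hour exposure period. TGI denotes the concentration required for complete inhibition of growth.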 Where a SMILES comes first, the peptide text is derived from it. The star is where a group is joined. Boc = CC(C)(C)OC(=O)*; Bz = O=C(c1ccccc1)*

Test systems include A498 renal; BT-549 breast; DU-145 prostate; EKVX NSCLC; HCC-2998 colon; HS 578T breast; K-562 leukemia; KM12 colon; M14 melanoma; MCF7 breast; MDA-MB-231 breast; SF-268 CNS; SK-MEL-5 melanoma; SNB-19 CNS; TK-10 renal; UO-31 renal; SF-295 CNS; SK-OV-3 ovarian; HOP-62 NSCLC.
What all share (experiment): NCI tumour cell line growth inhibition, 48 h

As for `COc1ccccc1/C=C/C1=NN(c2cccc(S(=O)(=O)O)c2)C2(C1)SCC(=O)N2c1nc2ccccc2s1` (centres undefined), the TGI with A498 renal, in the test with BT-549 breast, with DU-145 prostate, with EKVX NSCLC, in the test with HCC-2998 colon and with HS 578T breast was over 100 µM throughout. For the same compound, the TGI in the test with K-562 leukemia, in the test on KM12 colon, in the test on M14 melanoma, in the test on MCF7 breast, in the test with MDA-MB-231 breast and in the test with SF-268 CNS was over 100 µM throughout. For the same compound, the TGI in the test on SK-MEL-5 melanoma, in the test with SNB-19 CNS, in the test on TK-10 renal and in the test with UO-31 renal was over 100 µM in each case.

For the compound `COc1cc(C2SCC(=O)N2c2cc(Cl)c(Cl)cc2Cl)cc(OC)c1OC` (centres undefined), the TGI in the test with A498 renal was over 100 µM; with BT-549 breast it was 64.7 µM; in the test with DU-145 prostate, over 100 µM; in the test with EKVX NSCLC, over 100 µM; with HCC-2998 colon, over 100 µM; in the test with HS 578T breast, over 100 µM. In addition, the TGI in the test on K-562 leukemia, in the test with KM12 colon, in the test with M14 melanoma, in the test with MCF7 breast, in the test with MDA-MB-231 breast and in the test with SF-268 CNS was over 100 µM in each case. Also, the TGI in the test with SF-295 CNS, with SK-MEL-5 melanoma, in the test with SK-OV-3 ovarian, in the test on SNB-19 CNS, in the test with TK-10 renal and with UO-31 renal was over 100 µM throughout.

For `CC(NC(=O)C(Cc1ccc(OC(=O)c2ccccc2)cc1)NC(=O)OC(C)(C)C)C(=O)NC(Cc1ccccc1)C(=O)NCC(N)=O` (centres undefined) (Boc-Y(Bz)AFG-NH2; configuration not given here), the TGI with A498 renal was determined as 41.9 µM; with BT-549 breast, 37.4 µM; in the test with DU-145 prostate, 42.3 µM; in the test with HCC-2998 colon, 38.5 µM; in the test on HOP-62 NSCLC it was 31.4 µM; with HS 578T breast, 47 µM. For the same compound, the TGI was 57.4 µM in the test with K-562 leukemia; over 100 µM in the test with KM12 colon; 34 µM with M14 melanoma; 40.8 µM with MCF7 breast; 36.5 µM in the test with MDA-MB-231 breast; 43 µM with SF-268 CNS. The TGI is 40.1 µM with SF-295 CNS; 81.7 µM in the test with SK-MEL-5 melanoma; 39.4 µM with SK-OV-3 ovarian; 36.5 µM in the test on SNB-19 CNS; 41.4 µM with TK-10 renal; 35.2 µM with UO-31 renal.

On to `O=C(Nc1nnc(-c2ccccc2)o1)C(SC(=S)N1CCCCC1)c1ccccc1` (centres undefined), for which the TGI was 73.9 µM with A498 renal; 39.3 µM in the test on BT-549 breast; 71.6 µM with DU-145 prostate; 64.2 µM in the test on EKVX NSCLC; 92.1 µM in the test with HOP-62 NSCLC; over 100 µM with HS 578T breast. The TGI with K-562 leukemia was over 100 µM; in the test with KM12 colon, over 100 µM; with M14 melanoma, 27.4 µM; in the test on MCF7 breast it was over 100 µM; with MDA-MB-231 breast it was over 100 µM; with SF-295 CNS, over 100 µM. The TGI is 28.2 µM in the test with SK-MEL-5 melanoma; over 100 µM in the test with SK-OV-3 ovarian; over 100 µM with SNB-19 CNS; over 100 µM in the test with TK-10 renal; 26.9 µM in the test with UO-31 renal.

For the compound `CCOC(=O)c1cnn2c1ncc1c(=O)n(NC(N)=O)ccc12`, the TGI with A498 renal, with BT-549 breast, in the test with DU-145 prostate, in the test with EKVX NSCLC, with HOP-62 NSCLC and with HS 578T breast was over 100 µM in each case. Also, the TGI with KM12 colon, in the test with M14 melanoma, in the test with MCF7 breast, in the test with MDA-MB-231 breast, in the test with SF-268 CNS and with SF-295 CNS was over 100 µM each time. Moreover, the TGI with SK-MEL-5 melanoma, with SK-OV-3 ovarian, with SNB-19 CNS, with TK-10 renal and in the test on UO-31 renal was over 100 µM each time.

Turning to `NCCSc1nc2ccccc2s1`, the TGI in the test on A498 renal was 90.7 µM; with BT-549 breast it was 93.8 µM; with DU-145 prostate, over 100 µM; in the test with EKVX NSCLC it was 80.6 µM; in the test on HOP-62 NSCLC, 62.3 µM; in the test on HS 578T breast it was 76.4 µM. The TGI was over 100 µM in the test with K-562 leukemia; over 100 µM in the test with KM12 colon; over 100 µM with M14 melanoma; 98.1 µM with MCF7 breast; over 100 µM with MDA-MB-231 breast; 86 µM with SF-268 CNS. The TGI in the test on SF-295 CNS was 73.2 µM; in the test with SK-MEL-5 melanoma, over 100 µM; with SK-OV-3 ovarian, 79.7 µM; with SNB-19 CNS, over 100 µM; in the test with TK-10 renal it was 66.3 µM; in the test with UO-31 renal it was over 100 µM.

With `COc1ccc(/C=C2\CCC(C)C3=C(c4ccc(OC)c(OC)c4)C(C#N)=C(N)OC32)cc1OC` (centres undefined), the TGI was 51.9 µM in the test with A498 renal; 24.5 µM in the test with BT-549 breast; over 100 µM with DU-145 prostate; 8.12 µM in the test with EKVX NSCLC; over 100 µM with HS 578T breast; over 100 µM with K-562 leukemia. The TGI in the test with KM12 colon was 66.5 µM; in the test on M14 melanoma it was 15 µM; in the test on MCF7 breast, 19.5 µM; in the test with MDA-MB-231 breast, 17.5 µM; with SF-268 CNS it was over 100 µM; in the test with SF-295 CNS, 75.9 µM. Besides, the TGI was 4.66 µM with SK-MEL-5 melanoma; 36.4 µM with SK-OV-3 ovarian; over 100 µM in the test with SNB-19 CNS; over 100 µM in the test on TK-10 renal; 8.4 µM in the test on UO-31 renal.

Take `Cc1ccc(-c2nc(C)c(C(=O)Nc3ccc(Cl)cc3)s2)cc1`: the TGI with A498 renal is 41.5 µM; in the test on BT-549 breast, 78.2 µM; with DU-145 prostate, over 100 µM; with EKVX NSCLC, over 100 µM; in the test with HOP-62 NSCLC, 26.2 µM; in the test with HS 578T breast, 62.1 µM. Moreover, the TGI in the test on K-562 leukemia was over 100 µM; with KM12 colon it was over 100 µM; with M14 melanoma it was over 100 µM; in the test on MCF7 breast, over 100 µM; with MDA-MB-231 breast, 75.6 µM; in the test with SF-268 CNS, 91.8 µM. Further, the TGI in the test on SF-295 CNS was 33.7 µM; in the test with SK-MEL-5 melanoma, 41.7 µM; in the test on SK-OV-3 ovarian, 45.2 µM; in the test on SNB-19 CNS, 43.2 µM; in the test with TK-10 renal, 38.9 µM; in the test on UO-31 renal, 49.3 µM.

Values taken from PubChem BioAssay (NCI).
